Test results as given in US20250186448A1 (Mezzion Pharma Co., Ltd., priority 2021, published 2025).
“And” between values parts separate entries of the source, which are not always exact repeats. Equal entries are not always repeated.

How the values were obtained:
[1] = tested on: adolescents with Single Ventricle Heart Disease who underwent Fontan palliation; assay: FALD study (FUEL Extension): Enhanced Liver Fibrosis (ELF) score from serum HA, PIIINP, TIMP-1; format: in vivo, human; parameters: key to Baseline ELF, Mean (SD) / ELF Score, Post Baseline: ELF score: <7.7 none/mild, 7.7-9.8 moderate, 9.8-11.3 severe, >11.3 cirrhosis
Text: The FALD study, ClinicalTrials.gov Identifier: NCT03430583, which is incorporated herein by reference in its entirety, was an open-label extension study that integrated with the FUEL Extension Trial. […] Both the U− cohort and the U+ cohort had liver stiffness measured by ultrasound and MR elastography (where available), and ELF biomarkers analyzed, as described above. […] The Enhanced Liver Fibrosis (ELF) scores were based on the serum levels of hyaluronic acid (HA), amino-terminal propeptide of type III collagen (PIIINP), and tissue inhibitor of metalloproteinase-1 (TIMP-1). Testing was performed by the FUEL-OLE Central Laboratory using the serum samples. In accordance with prior studies, we assigned those patients with scores of <7.7 to the no-fibrosis or mild fibrosis group, 7.7-9.8 to the moderate fibrosis group, 9.8-11.3 to the severe fibrosis group, and >11.3 to the cirrhosis group. The primary outcome measure of the FALD study was the range of liver stiffness in adolescents with Single Ventricle Heart Disease who underwent Fontan palliation. Secondary outcome measures included the effect of drug therapy on liver stiffness, and the effect of drug therapy on Enhanced Liver Fibrosis (ELF) score. See Clinical Trials.gov identifier NCT03430583, at p. 3. It is to be understood that present invention contemplates udenafil drug products that are therapeutically equivalent to the udenafil drug products of the present invention.

[2] = tested on: adolescents with Single Ventricle Heart Disease who underwent Fontan palliation; assay: FALD study: liver stiffness by ultrasound shear wave elastography (SWE); format: in vivo, human; parameters: USWE, Post Baseline: unit not given beside the values; USWE, Change from Baseline: unit not given here; conditions: Cohort U− (udenafil for 52 weeks), individual subject
Text: Ultrasound SWE uses one or more acoustic radiation force impulses (ARFI) or “push pulses” to generate shear waves in the tissue of interest. These shear waves can be tracked and their speed measured, with increasing tissue stiffness associated with increasing tissue shear wave speed. Shear wave speed can be mathematically converted to both shear and Young's moduli (in kPa), mechanical properties related to tissue rigidity and elasticity. There are two major forms of ultrasound SWE-“point” and “2D”. Point ultrasound SWE provides a very focal estimate of liver stiffness using a small region-of-interest, wh[…] ultrasound SWE provides a regional color parameteric map (elastogram) of image stiffness and allows measurement over a much larger area of the liver. The FALD study, ClinicalTrials.gov Identifier: NCT03430583, which is incorporated herein by reference in its entirety, was an open-label extension study that integrated with the FUEL Extension Trial. […] Both the U- cohort and the U+ cohort had liver stiffness measured by ultrasound and MR elastography (where available), and ELF biomarkers analyzed, as described above. […] The primary outcome measure of the FALD study was the range of liver stiffness in adolescents with Single Ventricle Heart Disease who underwent Fontan palliation. Secondary outcome measures included the effect of drug therapy on liver stiffness, and the effect of drug therapy on Enhanced Liver Fibrosis (ELF) score. See Clinical Trials.gov identifier NCT03430583, at p. 3. It is to be understood that present invention contemplates udenafil drug products that are therapeutically equivalent to the udenafil drug products of the present invention.

[3] = Cohort U+ & U− Pooled, baseline ELF Cirrhosis (N 17)
[4] = Cohort U+ & U− Pooled, baseline ELF moderate fibrosis (N 20)
[5] = Cohort U+ & U− Pooled, baseline ELF moderate fibrosis (N 20), listed as udenafil
[6] = Cohort U+ & U− Pooled, baseline ELF severe fibrosis (N 36)
[7] = Cohort U+, baseline ELF Cirrhosis (N 9)
[8] = Cohort U+, baseline ELF moderate fibrosis (N 8)
[9] = Cohort U+, baseline ELF severe fibrosis (N 15)
[10] = Cohort U− (udenafil for 52 weeks), individual subject
[11] = Cohort U−, baseline ELF Cirrhosis (N 8)
[12] = Cohort U−, baseline ELF moderate fibrosis (N 12)
[13] = Cohort U−, baseline ELF moderate fibrosis (N 12), listed as udenafil
[14] = Cohort U−, baseline ELF severe fibrosis (N 21)
[15] = FALD, cohort U+ (78 weeks udenafil)

Compound: CCCOc1ccc(S(=O)(=O)NCCC2CCCN2C)cc1-c1nc2c(CCC)nn(C)c2c(=O)[nH]1 (stereo not shown) [Udenafil, udenafil]
- Patients with Improved ELF fibrosis category ([1]; Cohort U+ & U− Pooled, 41/73): 41/73 (56%) Improved
- Patients with post baseline ELF score Mild, n (%) [1, 3]: 0
- Patients with post baseline ELF score Sev, n (%) [1, 3]: 13 (76%)
- Patients with post baseline ELF score Sev, n (%) ([1]; Cohort U+ & U− Pooled, baseline ELF Cirrhosis (N 17), listed as udenafil): 6
- Patients with post baseline ELF score Mild, n (%) [1, 4]: 1 (5%)
- Patients with post baseline ELF score Sev, n (%) [1, 4]: 8 (40%)
- Patients with post baseline ELF score Mild, n (%) [1, 5]: 1
- Patients with post baseline ELF score Sev, n (%) [1, 5]: 8
- Patients with post baseline ELF score Mild, n (%) [1, 6]: 0
- Patients with post baseline ELF score Sev, n (%) [1, 6]: 13 (36%)
- Patients with post baseline ELF score Sev, n (%) ([1]; Cohort U+ & U− Pooled, baseline ELF severe fibrosis (N 36), listed as udenafil): 8
- Patients with Improved ELF fibrosis category ([1]; Cohort U+, 19/32): 19/32 (59%) Improved
- Patients with post baseline ELF score Mild, n (%) [1, 7]: 0
- Patients with post baseline ELF score Sev, n (%) [1, 7]: 7 (78%)
- Patients with post baseline ELF score Sev, n (%) ([1]; Cohort U+, baseline ELF Cirrhosis (N 9), listed as udenafil): 7
- Patients with post baseline ELF score Mild, n (%) [1, 8]: 0
- Patients with post baseline ELF score Sev, n (%) [1, 8]: 0
- Patients with post baseline ELF score Mild, n (%) [1, 9]: 0
- Patients with post baseline ELF score Sev, n (%) [1, 9]: 5 (33%)
- Patients with post baseline ELF score Sev, n (%) ([1]; Cohort U+, baseline ELF severe fibrosis (N 15), listed as udenafil): 5
- ELF Score, % Change from Baseline [1, 10]: −7.61% and −11.19% and −20.06% and −15.92% and 10.85% and 9.365%
- ELF Score, Change from Baseline [1, 10]: −0.78 and −1.22 and −2.03 and −1.85 and 0.97 and 0.9 and 0.26
- ELF Score, Post Baseline ([1]; Cohort U− (udenafil for 52 weeks), individual subject, Post Baseline visit (52 week)): 9.47 and 9.68 and 8.09 and 9.77 and 9.91 and 10.51 and 9.67
- Patients with Improved ELF fibrosis category ([1]; Cohort U−, 22/41): 22/41 (54%) Improved
- Patients with post baseline ELF score Mild, n (%) [1, 11]: 0
- Patients with post baseline ELF score Sev, n (%) [1, 11]: 6 (75%)
- Patients with post baseline ELF score Sev, n (%) ([1]; Cohort U−, baseline ELF Cirrhosis (N 8), listed as udenafil): 6
- Patients with post baseline ELF score Mild, n (%) [1, 12]: 1 (8%)
- Patients with post baseline ELF score Sev, n (%) [1, 12]: 8 (67%)
- Patients with post baseline ELF score Mild, n (%) [1, 13]: 1
- Patients with post baseline ELF score Sev, n (%) [1, 13]: 8
- Patients with post baseline ELF score Mild, n (%) [1, 14]: 0
- Patients with post baseline ELF score Sev, n (%) [1, 14]: 8 (38%)
- Patients with post baseline ELF score Sev, n (%) ([1]; Cohort U−, baseline ELF severe fibrosis (N 21), listed as udenafil): 8
- ELF Percent Change: Week 52-Baseline, Median ([1]; FALD, Total): −7.2%
- Week 52 ELF, Median ([1]; FALD, Total): 9.7
- Baseline ELF, Mean (SD) ([1]; FALD, Total (U+ and U−)): 10.4
- Week 52 ELF, Mean (SD) ([1]; FALD, Total (U+ and U−)): 9.8
- ELF Percent Change: Week 52-Baseline, Mean (SD) ([1]; FALD, Total, p <0.0001 vs 0): −6.8 (7.69) %
- Week 52 ELF, Median ([1]; FALD, cohort U+): 9.6
- Baseline ELF, Mean (SD) ([1]; FALD, cohort U+ (6 months udenafil in FUEL before baseline)): 10.5
- Baseline ELF, Mean (SD) ([1]; FALD, cohort U+ (6 months udenafil in FUEL before baseline), listed as udenafil): 10.5
- Week 52 ELF, Mean (SD) ([1]; FALD, cohort U+ (18 months udenafil, 87.5 mg twice daily)): 9.7
- Week 52 ELF, Mean (SD) ([1]; FALD, cohort U+ (18 months udenafil, 87.5 mg twice daily), listed as udenafil): 9.7
- Patients with improved ELF scores [1, 15]: About 94%
- Subjects with a decrease (improvement) in ELF score [1, 15]: all but 2 of 31
- ELF Percent Change: Week 52-Baseline, Mean (SD) ([1]; FALD, cohort U+, p <0.0001 vs 0): −8.0 (5.56) %
- Average improvement of ELF score, baseline to week 52 ([1]; FALD, cohort U+, p=0.0001): approximately 8%
- ELF Percent Change: Week 52-Baseline, Median ([1]; FALD, cohort U−): −6.1%
- Week 52 ELF, Median ([1]; FALD, cohort U−): 9.9
- Week 52 ELF, Mean (SD) ([1]; FALD, cohort U− (1 year udenafil, 87.5 mg twice daily)): 9.8
- Week 52 ELF, Mean (SD) ([1]; FALD, cohort U− (1 year udenafil, 87.5 mg twice daily), listed as udenafil): 9.8
- Subjects with a decrease (improvement) in ELF score, number ([1]; FALD, cohort U− (52 weeks udenafil), of 40 subjects): about 30
- Baseline ELF, Mean (SD) ([1]; FALD, cohort U− (udenafil-naïve at baseline)): 10.3
- Baseline ELF, Mean (SD) ([1]; FALD, cohort U− (udenafil-naïve at baseline), listed as udenafil): 10.3
- Average improvement of ELF score, baseline to week 52 ([1]; FALD, cohort U−, based on paired data): about 5.9%
- ELF Percent Change: Week 52-Baseline, Mean (SD) ([1]; FALD, cohort U−, p 0.0001 vs 0): −5.9 (8.98) %
- Subjects with an improved ELF score ([1]; FALD, overall (U+ and U−)): about 84%
- USWE, % Change from Baseline [2]: −2.439% and −7.692% and 6.011% and 20.92% and −0.9302% and −22.07% and −1.22%
- USWE, Change from Baseline [2]: −0.06 and −0.13 and 0.11 and 0.41 and −0.02 (2×) and −0.49 and 0.09
- USWE, Post Baseline ([2]; Post Baseline visit (52 week)): 2.4 and 1.56 and 1.94 and 2.37 and 2.13 and 1.73 and 1.62 and 2.08
